pIC50: −log10 of the molar value. Counter-ions that a name gives are not always drawn.
Legend:
[1] = tested on: Uterine Eosinophil Peroxidase; assay: Uterine Eosinophil Peroxidase (EPO) Assay; format: in vivo, female Sprague Dawley rats; settings: for Uterine Eosinophil (Vmax), Eosinophil peroxidase Vmax: daily for 4 days, 5 to 6 rats, * p < .05
Source text: (§1) Seventy-five day old female Sprague Dawley rats (weight range of 200 to 225 g) were obtained from Charles River Laboratories (Portage, Mich.). The animals were either bilaterally ovariectomized (OVX) or exposed to a Sham surgical procedure at Charles River Laboratories, and then shipped after one week. Upon arrival, they were housed in metal hanging cages in groups of 3 or 4 per cage and had ad libitum access to food (calcium content approximately 0.5%) and water for one week. Room temperature was maintained at 22.2°±1.7° C. with a minimum relative humidity of 40%. The photoperiod in the room was 12 hours light and 12 hours dark.
(§2) Dosing Regimen Tissue Collection. After a one week acclimation period (therefore, two weeks post-OVX) daily dosing with test compound was initiated. 17α-ethynyl estradiol or the test compound were given orally, unless otherwise stated, as a suspension in 1% carboxymethylcellulose or dissolved in 20% cyclodextrin. Animals were dosed daily for 4 days. Following the dosing regimen, animals were weighed and anesthetized with a ketamine:xylazine (2:1, V:V) mixture and a blood sample was collected by cardiac puncture. The animals were then sacrificed by asphyxiation with CO2, the uterus was removed through a midline incision, and a wet uterine weight was determined.
Uterine Eosinophil Peroxidase (EPO) Assay. Uteri were kept at 4° C. until time of enzymatic analysis. The uteri were then homogenized in 50 volumes of 50 mM Tris buffer (pH-8.0) containing 0.005% Triton X-100. Upon addition of 0.01% hydrogen peroxide and 10 mM O-phenylenediamine (final concentrations) in Tris buffer, increase in absorbance was monitored for one minute at 450 nm. The presence of eosonophils in the uterus is an indication of estrogenic activity of a compound. The maximal velocity of a 15 second interval was determined over the initial, linear portion of the reaction curve.
(§3) The data presented in Table 1 below reflects the response of 5 to 6 rats per treatment.

[2] = tested on: uterus of ovariectomized rats; assay: Uterine weight in ovariectomized rats; format: in vivo, female Sprague Dawley rats; settings: for Uterine Weight % Inc (increase versus the ovariectomized controls): daily for 4 days, 5 to 6 rats, * p < .05
Source text: as §1, §2, §3

Serum cholesterol = Serum cholesterol analysis in ovariectomized rats; format: in vivo, female Sprague Dawley rats; settings: for Serum Cholest. % Dec. (decrease versus ovariectomized controls): daily for 4 days, 5 to 6 rats, * p < .05
Source text: as §1, §2
Cholesterol Analysis. Blood samples were allowed to clot at room temperature for 2 hours, and serum was obtained following centrifugation for 10 minutes at 3000 rpm. Serum cholesterol was determined using a Boehringer Mannheim Diagnostics high performance cholesterol assay. Briefly the cholesterol was oxidized to cholest-4-en-3-one and hydrogen peroxide. The hydrogen peroxide was then reacted with phenol and 4-aminophenazone in the presence of peroxidase to produce a p-quinone imine dye, which was read spectrophotemetrically at 500 nm. Cholesterol concentration was then calculated against a standard curve.
as §3

[3] = tested on: femur density of ovariectomized rats; assay: Osteoporosis test, bone density in ovariectomized rats; format: in vivo; settings: orally administered, 35 days, in 20% hydroxypropyl β-cyclodextrin
Procedure: Following the General Preparation Procedure, infra, the rats are treated daily for 35 days (6 rats per treatment group) and sacrificed by carbon dioxide asphyxiation on the 36th day. The 35 day time period is sufficient to allow maximal reduction in bone density, measured as described herein. At the time of sacrifice, the uteri are removed, dissected free of extraneous tissue, and the fluid contents are expelled before determination of wet weight in order to confirm estrogen deficiency associated with complete ovariectomy. […] The uteri are then placed in 10% neutral buffered formalin to allow for subsequent histological analysis. The right femurs are excised and digitilized x-rays generated and analyzed by an image analysis program (NIH image) at the distal metaphysis. The proximal aspect of the tibiae from these animals are also scanned by quantitative computed tomography. In accordance with the above procedures, compounds of the instant invention and ethynyl estradiol (EE2) in 20% hydroxypropyl β-cyclodextrin are orally administered to test animals. Distal femur metaphysis and proximal tibiae data are compared to intact and ovariectomized test animals. Results are reported as percent protection relative to ovariectomy.

[4] = tested on: MCF-7 breast adenocarcinoma cells; assay: MCF-7 Proliferation Assay (estrogen dependent breast cancer); format: cell-based; settings: Homo sapiens, MCF7, versus control (DMSO), tritiated thymidine
Procedure: MCF-7 breast adenocarcinoma cells (ATCC HTB 22) are maintained in MEM (minimal essential medium, phenol-red free, Sigma St.Louis Mo.) supplimented with 10% fetal bovine serum (FBS) (v/v), L-glutamine (2 mM), sodium pyruvate (1 mM), HEPES (10 mM), non-essential amino acids and bovine insulin (1 ug/mL). Ten days prior to the assay, the MCF-7 cells are switched to maintenance medium supplemented with 10% dextrancoated charcoal stripped fetal bovine serum (DCC-FBS) assay medium in place of the 10% FBS to deplete internal stores of estrogen. MCF-7 cells are removed from the maintenance flasks using a cell dissociating medium (Ca/Mg free HBSS (phenol-red free) supplemented with 10 mM HEPES and 2 mM EDTA. Cells are washed twice with the assay medium and adjusted to 80,000 cells/mL. Approximately […] (8,000 cells) are added to a flat-bottomed microculture well (Costar 3596) and incubated at […] in a 5% CO2 humidified incubator for 48 hours to allow cell adherence and equilibrium after transfer. Serial dilutions of the compounds of formula I or DMSO as a diluent control are prepared in assay medium and […] to triplicate microcultures followed by […] for a final volume of […]. After an additional 48 hours of incubation, the microcultures are pulsed with tritiated thymidine ([…]) for 4 hours. Culture are terminated by freezing at -70° C. for 24 hours followed by thawing and harvesting of microcultures using a Skatron Semiautomatic Cell Harvester. Samples are counted by liquid scintillation. Fifty percent inhibitory concentration of the test drugs (IC50) are determined versus the control (DMSO).

pIC50 [4] | Structure (SMILES) | Uterine Eosinophil (Vmax), Eosinophil peroxidase Vmax ([1]; 0.1 mg/kg PO) | Uterine Eosinophil (Vmax), Eosinophil peroxidase Vmax ([1]; 1.0 mg/kg PO) | Uterine Eosinophil (Vmax), Eosinophil peroxidase Vmax ([1]; 10.0 mg/kg PO) | Uterine Weight % Inc (increase versus the ovariectomized controls) ([2]; 0.1 mg/kg PO) | Uterine Weight % Inc (increase versus the ovariectomized controls) ([2]; 1.0 mg/kg PO) | Uterine Weight % Inc (increase versus the ovariectomized controls) ([2]; 10.0 mg/kg PO) | Serum Cholest. % Dec. (decrease versus ovariectomized controls) (Serum cholesterol; 0.1 mg/kg PO) | Serum Cholest. % Dec. (decrease versus ovariectomized controls) (Serum cholesterol; 1.0 mg/kg PO) | Serum Cholest. % Dec. (decrease versus ovariectomized controls) (Serum cholesterol; 10.0 mg/kg PO) | eosinophil infiltration into the uterus (in words) ([1]; stromal layer of ovariectomized rats) | loss of femur density after ovariectomy [3] | uterine weight (in words) ([2]; EE2 orally at 0.1 mg/kg/day, versus ovariectomized test animals) | serum cholesterol (in words) (Serum cholesterol; EE2 orally at 0.1 mg/kg/day)
 | Oc1ccc(-c2sc3cc(O)ccc3c2-c2ccc(OCCN3CCCCC3)cc2)cc1 [Compound A, reference compound] | 21.0 | 49.9 | 55.9 | 24.6% | 64.8% | 41.7% | 45.4% | 68.8% | 65.3% |  |  |  | 
 | C#C[C@]1(O)CC[C@H]2[C@@H]3CCc4cc(O)ccc4[C@H]3CC[C@@]21C [EE2, 17α-ethynyl estradiol, reference compound] | 234.2 |  |  | 118.6% |  |  | 89.3% |  |  | substantial, expected increase in eosinophil infiltration | prevents this loss | substantially greater than the uterine weight of ovariectomized test animals | caused a decrease in serum cholesterol
 | COc1ccc(-c2sc3cc(OC)ccc3c2-c2cccc(OCCN3CCCCC3)c2)cc1.Cl [Example 1, 2-(4-Methoxyphenyl)-3-[3-[2-(1-piperidinyl)ethoxy]phenyl]-6-methoxybenzo[b]thiophene hydrochloride] | 7.5 | 22.2 | 103.5 | 24% | 37.2% | 68.2% | 25.8% | 56.1% | 71.1% |  |  |  | 
 | COc1ccc(-c2sc3cc(OC)ccc3c2-c2cccc(OCCCN3CCCCC3)c2)cc1.Cl [Example 2, 2-(4-Methoxyphenyl)-3-[3-[3-(1-piperidinyl)propoxy]phenyl]-6-methoxybenzo[b]thiophene hydrochloride] | 24.0 | 32.4 | 32.1 | 20.2% | 35.7% | 39.1% | 59.1% | 76.5% | 69.4% |  |  |  | 
 | COc1ccc(-c2sc3cc(OC)ccc3c2-c2cccc(OCCCCN3CCCCC3)c2)cc1.Cl [Example 3, 2-(4-Methoxyphenyl)-3-[3-[4-(1-piperidinyl)butoxy]phenyl]-6-methoxybenzo[b]thiophene hydrochloride] | 4.8 | 43.5 | -91.2 | 23.9% | 62.1% | 65.0% | 35.5% | 64.4% | 78.0% |  |  |  | 
8.10 | Oc1ccc(-c2sc3cc(O)ccc3c2-c2cccc(OCCN3CCCCC3)c2)cc1 [Example 4, 2-(4--Hydroxyphenyl)-3-[3-[2-(1-piperidinyl)ethoxy]phenyl]-6-hydroxybenzo[b]thiophene hydrochloride] | 4.8 | 4.8 | 103.8 | 9.1% | 5.6% | 78.7% | 33.3% | 57.2% | 81.0% |  |  |  | 
9.70 | Oc1ccc(-c2sc3cc(O)ccc3c2-c2cccc(OCCCN3CCCCC3)c2)cc1 [Example 5] |  |  |  |  |  |  |  |  |  |  |  |  | 

Structure (SMILES) | pIC50 [4] | Uterine Eosinophil (Vmax), Eosinophil peroxidase Vmax ([1]; 0.1 mg/kg PO) | Uterine Eosinophil (Vmax), Eosinophil peroxidase Vmax ([1]; 1.0 mg/kg PO) | Uterine Eosinophil (Vmax), Eosinophil peroxidase Vmax ([1]; 10.0 mg/kg PO) | Uterine Weight % Inc (increase versus the ovariectomized controls) ([2]; 0.1 mg/kg PO) | Uterine Weight % Inc (increase versus the ovariectomized controls) ([2]; 1.0 mg/kg PO) | Uterine Weight % Inc (increase versus the ovariectomized controls) ([2]; 10.0 mg/kg PO) | Serum Cholest. % Dec. (decrease versus ovariectomized controls) (Serum cholesterol; 0.1 mg/kg PO) | Serum Cholest. % Dec. (decrease versus ovariectomized controls) (Serum cholesterol; 1.0 mg/kg PO) | Serum Cholest. % Dec. (decrease versus ovariectomized controls) (Serum cholesterol; 10.0 mg/kg PO) | eosinophil infiltration into the uterus (in words) ([1]; stromal layer of ovariectomized rats) | loss of femur density after ovariectomy [3] | uterine weight (in words) ([2]; EE2 orally at 0.1 mg/kg/day, versus ovariectomized test animals) | serum cholesterol (in words) (Serum cholesterol; EE2 orally at 0.1 mg/kg/day)
Oc1ccc(-c2sc3cc(O)ccc3c2-c2cccc(OCCCCN3CCCCC3)c2)cc1 [Example 6, 2-(4--Hydroxyphenyl)-3-[3-(1-piperidinyl)butoxy]phenyl]-6-hydroxybenzo[b]thiophene hydrochloride] | 8.70 |  |  |  |  |  |  |  |  |  |  |  |  | 

— US5843940A, “Benzothiophene compounds, compositions, and method” (Eli Lilly and Company, priority 1997, dated 1998)
